Measurements taken from patent US9359308B2, “Pyrazine kinase inhibitors” (Portola Pharmaceuticals, Inc., priority 2011, dated 2016).

Molecular target: T1, full length active recombinant SYK enzyme (Homo sapiens, UniProt P43405)
T1 construct: full length active recombinant SYK enzyme (Millipore, Calif.); purchased Millipore
Test: Inhibition of Syk tyrosine phosphorylation activity (LANCE TR-FRET kinase assay)
Assay type: biochemical
Conditions: activity in the Syk assays, class symbols
Summary of the method: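 IC50 was derived by non-linear regression of TR-FRET signal (Eu-W1024-PY100 donor, streptavidin-APC acceptor) read 1 h after EDTA quench. The kinase step ran 1 h at room temperature with 1 nM full-length SYK, 550 nM biotinylated DEEDYESP substrate and 100 μM ATP in Tris pH 7.5/MgCl2/DTT at 3% final DMSO.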

Row | SMILES | IC50 [nM]
1 | N#CCN1CC[C@@H](Nc2cnc(C(N)=O)c(Nc3cnc4ccncc4c3)n2)C1 [Example 118, (R)-3-((1,6-naphthyridin-3-yl)amino)-5-((1-(cyanomethyl)pyrrolidin-3-yl)amino)pyrazine-2-carboxamide] | 100 to 1000
2 | CC[C@@H](Nc1cnc(C(N)=O)c(Nc2cnn(CC3CC3)c2)n1)C(N)=O [Example 218, (R)-5-(1-amino-1-oxobutan-2-ylamino)-3-(1-(cyclopropylmethyl)-1H-pyrazol-4-ylamino)pyrazine-2-carboxamide] | 100 to 1000
3 | CC(=O)N1CCC[C@H](Nc2cnc(C(N)=O)c(Nc3cnc4ccccc4c3)n2)C1 [Example 109, (S)-5-((1-acetylpiperidin-3-yl)amino)-3-(quinolin-3-ylamino)pyrazine-2-carboxamide] | > 1000
4 | COc1ccc(Nc2nc(N[C@@H](C(N)=O)C(C)C)cnc2C(N)=O)cc1OC [Example 141, (R)-5-(1-amino-3-methyl-1-oxobutan-2-ylamino)-3-(3,4-dimethoxyphenylamino)pyrazine-2-carboxamide] | 10 to 100
5 | CC(C)C[C@@H](Nc1cnc(C(N)=O)c(Nc2ccc(-c3ccno3)cc2)n1)C(N)=O [Example 21, (R)-5-(1-amino-4-methyl-1-oxopentan-2-ylamino)-3-(4-(isoxazol-5-yl)phenylamino)pyrazine-2-carboxamide] | 1 to 10
6 | NC(=O)c1ncc(N[C@@H]2CCCC[C@@H]2N)nc1Nc1cncc(Cl)c1 [Example 217, 5-((1R,2S)-2-aminocyclohexylamino)-3-(5-chloropyridin-3-ylamino)pyrazine-2-carboxamide] | 1 to 10
7 | NC(=O)c1ncc(N[C@@H]2CCCC[C@@H]2N)nc1Nc1cnsc1 [Example 430, 5-(((1R,2S)-2-aminocyclohexyl)amino)-3-(isothiazol-4-ylamino)pyrazine-2-carboxamide] | 10 to 100
8 | CC(C)C[C@@H](Nc1cnc(C(N)=O)c(Nc2ccc(C(N)=O)cc2)n1)C(N)=O [Example 20, (R)-5-(1-amino-4-methyl-1-oxopentan-2-ylamino)-3-(4-carbamoylphenylamino)pyrazine-2-carboxamide] | 1 to 10
9 | NC(=O)c1ncc(N[C@@H]2CCCC(F)(F)[C@@H]2N)nc1Nc1ccnc(C2CC2)c1 [Example 346, 5-((1R,2R)-2-amino-3,3-difluorocyclohexylamino)-3-(2-cyclopropylpyridin-4-ylamino)pyrazine-2-carboxamide] | 1 to 10
10 | CC(C)C[C@@H](Nc1nc(Nc2cnc3ccccc3c2)cnc1C(N)=O)C(N)=O [Example 95, (R)-3-(1-amino-4-methyl-1-oxopentan-2-ylamino)-5-(quinolin-3-ylamino)pyrazine-2-carboxamide] | > 1000
11 | NC(=O)c1ncc(N[C@@H]2CCCC[C@@H]2N)nc1Nc1ccc(N2CCOCC2)c(F)c1 [Example 439, 5-(((1R,2S)-2-aminocyclohexyl)amino)-3-((3-fluoro-4-morpholinophenyl)amino)pyrazine-2-carboxamide] | 1 to 10
12 | NC(=O)c1ncc(N[C@@H]2CCCC(F)(F)[C@@H]2N)nc1Nc1ccc2cnccc2c1 [Example 364, 5-((1R,2R)-2-amino-3,3-difluorocyclohexylamino)-3-(isoquinolin-6-ylamino)pyrazine-2-carboxamide] | 1 to 10
13 | Cc1cc(Nc2nc(N[C@H](CCS(C)(=O)=O)C(N)=O)cnc2C(N)=O)sn1 [Example 400, (R)-5-(1-amino-4-(methylsulfonyl)-1-oxobutan-2-ylamino)-3-(3-methylisothiazol-5-ylamino)pyrazine-2-carboxamide] | 10 to 100
14 | CC[C@@H](Nc1cnc(C(N)=O)c(Nc2ccc(OC)nc2)n1)C(N)=O [Example 317, (R)-5-(1-amino-1-oxobutan-2-ylamino)-3-(6-methoxypyridin-3-ylamino)pyrazine-2-carboxamide] | 10 to 100
15 | NC(=O)c1ncc(N[C@@H]2CCCC(F)(F)[C@@H]2N)nc1Nc1ccc2cccnc2c1 [Example 384, 5-((1R,2R)-2-amino-3,3-difluorocyclohexylamino)-3-(quinolin-7-ylamino)pyrazine-2-carboxamide] | 10 to 100
16 | Cc1ccc(Nc2nc(N[C@H](CC3CC3)C(N)=O)cnc2C(N)=O)cc1C [Example 172, (R)-5-(1-amino-3-cyclopropyl-1-oxopropan-2-ylamino)-3-(3,4-dimethylphenylamino)pyrazine-2-carboxamide] | 1 to 10
17 | COc1cc(Nc2nc(N[C@@H]3CCOC[C@@H]3N)cnc2C(N)=O)ccn1 [Example 357, 5-((3R,4R)-3-aminotetrahydro-2H-pyran-4-ylamino)-3-(2-methoxypyridin-4-ylamino)pyrazine-2-carboxamide] | 1 to 10
18 | CC(C)[C@@H](Nc1cnc(C(N)=O)c(Nc2ccc3ccncc3c2)n1)C(N)=O [Example 195, (R)-5-(1-amino-3-methyl-1-oxobutan-2-ylamino)-3-(isoquinolin-7-ylamino)pyrazine-2-carboxamide] | 1 to 10
19 | CC[C@@H](Nc1cnc(C(N)=O)c(Nc2ccc(S(=O)(=O)N(C)C)cc2)n1)C(N)=O [Example 170, (R)-5-(1-amino-1-oxobutan-2-ylamino)-3-(4-(N,N-dimethylsulfamoyl)phenylamino)pyrazine-2-carboxamide] | 10 to 100

Row | SMILES | IC50 [nM]
20 | CC[C@@H](Nc1cnc(C(N)=O)c(Nc2ccc3ncccc3c2)n1)C(N)=O [Example 74, (R)-5-(1-amino-1-oxobutan-2-ylamino)-3-(quinolin-6-ylamino)pyrazine-2-carboxamide] | 1 to 10
21 | NC(=O)c1ncc(N[C@@H]2CCCC(F)(F)[C@@H]2N)nc1Nc1ccc2nccnc2c1 [Example 365, 5-((1R,2R)-2-amino-3,3-difluorocyclohexylamino)-3-(quinoxalin-6-ylamino)pyrazine-2-carboxamide] | 10 to 100
22 | Cn1ccc2c(Nc3nc(N[C@@H]4CCCC[C@@H]4N)cnc3C(N)=O)cccc21 [Example 11, 5-((1R,2S)-2-aminocyclohexylamino)-3-(1-methyl-1H-indol-4-ylamino)pyrazine-2-carboxamide] | 1 to 10
23 | Cc1cncc(Nc2nc(N[C@H](CC(C)C)C(N)=O)cnc2C(N)=O)c1 [Example 83, (R)-5-(1-amino-4-methyl-1-oxopentan-2-ylamino)-3-(5-methylpyridin-3-ylamino)pyrazine-2-carboxamide] | 1 to 10
24 | NC(=O)c1ncc(N[C@@H]2CCCC[C@@H]2N)nc1Nc1csc2ncccc12 [Example 428, 5-(((1R,2S)-2-aminocyclohexyl)amino)-3-(thieno[2,3-b]pyridin-3-ylamino)pyrazine-2-carboxamide] | < 1
25 | NC(=O)c1ncc(N[C@@H]2CCCC(F)(F)[C@@H]2N)nc1Nc1cc(-c2ccccc2)no1 [Example 387, 5-((1R,2R)-2-amino-3,3-difluorocyclohexylamino)-3-(3-phenylisoxazol-5-ylamino)pyrazine-2-carboxamide] | > 1000
26 | CC[C@@H](Nc1cnc(C(N)=O)c(Nc2cnc3ccncc3c2)n1)C(N)=O [Example 381, (R)-3-(1,6-naphthyridin-3-ylamino)-5-(1-amino-1-oxobutan-2-ylamino)pyrazine-2-carboxamide] | 1 to 10
27 | NC(=O)c1ncc(N[C@@H]2CCCC(F)(F)[C@@H]2N)nc1Nc1cccc(F)c1 [Example 372, 5-((1R,2R)-2-amino-3,3-difluorocyclohexylamino)-3-(3-fluorophenylamino)pyrazine-2-carboxamide] | 10 to 100
28 | CC(C)[C@@H](Nc1cnc(C(N)=O)c(Nc2ccc(OCC(F)(F)F)nc2)n1)C(N)=O [Example 327, (R)-5-(1-amino-3-methyl-1-oxobutan-2-ylamino)-3-(6-(2,2,2-trifluoroethoxy)pyridin-3-ylamino)pyrazine-2-carboxamide] | 100 to 1000
29 | CC[C@@H](Nc1cnc(C(N)=O)c(Nc2ccnc(C)c2)n1)C(N)=O [Example 178, (R)-5-(1-amino-1-oxobutan-2-ylamino)-3-(2-methylpyridin-4-ylamino)pyrazine-2-carboxamide] | 10 to 100
30 | NC(=O)c1ncc(N[C@@H]2CCCC[C@@H]2N)nc1Nc1cncnc1 [Example 303, 5-((1R,2S)-2-aminocyclohexylamino)-3-(pyrimidin-5-ylamino)pyrazine-2-carboxamide] | 10 to 100
31 | CC[C@@H](Nc1cnc(C(N)=O)c(Nc2cccc3c2ccn3C)n1)C(N)=O [Example 394, (R)-5-(1-amino-1-oxobutan-2-ylamino)-3-(1-methyl-1H-indol-4-ylamino)pyrazine-2-carboxamide] | 1 to 10
32 | NC(=O)c1ncc(N[C@@H]2CCCC[C@@H]2N)nc1Nc1ccnc(F)c1 [Example 263, 5-((1R,2S)-2-aminocyclohexylamino)-3-(2-fluoropyridin-4-ylamino)pyrazine-2-carboxamide] | 1 to 10
33 | CCOc1ccc(Nc2nc(N[C@@H]3CCCC[C@@H]3N)cnc2C(N)=O)cn1 [Example 308, 5-((1R,2S)-2-aminocyclohexylamino)-3-(6-ethoxypyridin-3-ylamino)pyrazine-2-carboxamide] | 1 to 10
34 | CC[C@@H](Nc1cnc(C(N)=O)c(Nc2ccc(C(=O)N(C)C)cc2)n1)C(N)=O [Example 299, (R)-5-(1-amino-1-oxobutan-2-ylamino)-3-(4-(dimethylcarbamoyl)phenylamino)pyrazine-2-carboxamide] | 100 to 1000
35 | CCc1ccc(Nc2nc(N[C@H](CC)C(N)=O)cnc2C(N)=O)cn1 [Example 340, (R)-5-(1-amino-1-oxobutan-2-ylamino)-3-(6-ethylpyridin-3-ylamino)pyrazine-2-carboxamide] | 10 to 100
36 | Cc1cccc(Nc2nc(N[C@H](CC(C)C)C(N)=O)cnc2C(N)=O)c1 [Example 63, (R)-5-(1-amino-4-methyl-1-oxopentan-2-ylamino)-3-(m-tolylamino)pyrazine-2-carboxamide] | 10 to 100
37 | NC(=O)c1ncc(N[C@@H]2CCCC[C@@H]2N)nc1Nc1cccc(-n2nccn2)c1 [Example 10, 3-(3-(2H-1,2,3-triazol-2-yl)phenylamino)-5-((1R,2S)-2-aminocyclohexylamino)pyrazine-2-carboxamide] | 1 to 10
